Experimental findings from patent US12565659B2, “Recombinant lac polynucleotides and uses thereof to increase production of C-lignin in plants” (UNIVERSITY OF NORTH TEXAS, priority 2020, dated 2026) are described below.

As a reminder, the Km is the concentration of substrate that gives half-maximal velocity.

The test system of this test is Recombinant ChLAC8. The test is described as follows: Laccase activity assay and enzyme kinetics of recombinant ChLAC8 with monolignol substrates. It is filed as biochemical, Cleome hassleriana. As to conditions: for oxidation of monolignol by ChLAC8 (decrease in substrate by HPLC): 200 μM substrate, 30 min, 25° C.; for dimers in reaction products (LC-MS/MS) / trimers in reaction products (LC-MS/MS): reaction with ChLAC8; for Kcat / Km / Vmax: recombinant ChLAC8, substrate 25 to 800 μM, pH 6.8, 25° C. The protocol:
The open reading frame (ORF) of ChLAC8 (ChLAC8X1, XM_010555066.1) was amplified with the primers listed in Wang Supp. Table 4, ligated into the pENTR/D-TOPO vector (Invitrogen), and subcloned into pDEST17 fused with a 6× histidine tag at the N-terminus via Gateway LR recombination reaction (Invitrogen). The resulting vector (pDEST17-ChLAC8) was transformed into E. coli Rosetta (DE3) (Novagen) for protein expression. The transgenic E. coli strain was cultured in LB medium at 37° C. until OD600=0.4-0.6 and then supplemented with 0.5 mM isopropyl-β-D-thiogalactoside (IPTG) to induce the expression of ChLAC8 at 16° C. for 20 h. After induction, cell cultures were harvested by centrifugation at 10,000×g for 5 min at 4° C., and the resulting pellets were used for ChLAC8 protein purification via Ni-NTA resin (Thermo Scientific) according to the manufacturer's manual. The eluted protein was further desalted into 50 mM potassium phosphate buffer (pH 6.8) using a 30 kDa cut-off Amicon Ultra centrifugal filter (Millipore). The purity of recombinant ChLAC8 was examined by SDS-PAGE and the protein concentration was quantified by Bradford assays.
Laccase activity assays were performed in a 100 μL reaction mixture consisting of 50 mM potassium phosphate buffer (pH 6.8), 10-20 μg of recombinant ChLAC8, and 200 μM monolignol substrate (caffeyl alcohol, coniferyl alcohol or sinapyl alcohol). The reactions were incubated at 25° C. for 30 min and terminated by adding 100 μL of methanol. The reaction products were injected into an HPLC or LC-MS/MS system for analysis as described below. The decrease in the level of the substrate was measured to calculate the enzyme activity. To determine kinetic parameters, ChLAC8 was incubated with different concentrations of caffeyl alcohol or sinapyl alcohol in a range from 25 to 800 μM. The enzyme assays were performed in triplicate at each substrate concentration, and the Vmax and Km values were calculated by Graphpad Prism 8 software with nonlinear regression analysis.
The reaction products were analyzed on an Agilent 1260 HPLC system equipped with a Luna C18(2) reverse-phase column (5 μm particle, 250×4.6 mm, Phenomenex) and separated in a mobile phase consisting of solvent A (1% in phosphoric acid in water) and solvent B (acetonitrile) with the following gradient: 5% B for 5 min, to 33% B in 25 min, to 45% B in 5 min, to 95% B in 5 min, keep at 95% B for 5 min, back to 5% B in 5 min.
LC-MS/MS analysis was performed using an Agilent 1290 Infinity II liquid chromatography system coupled to an Agilent 6400 Series Triple Quadrupole System with electrospray ionization source in negative ionization mode. A reverse phase ZORBAX RR Eclipse Plus C18, 95 Å, 4.6×250 mm, 5 μm (Agilent) was used for separation. The gradient for HPLC separation was 0.1% (v/v) formic acid in water (A) and 0.1% (v/v) formic acid in acetonitrile (B) with the following solvent gradient: 5% B for 5 min, to 40% B in 30 min, to 95% B in 5 min, 95% B for 5 min, to 5% B in 1 min. The total LC-MS/MS run was 46 min with a flow rate of 1.0 mL/min. Injection volume was 10 μL. MS data were recorded in the range of m/z 100-700 (Perna et al., 2018).

Marks after values point to notes of the source that are not given here.

On to `COc1cc(/C=C/CO)cc(OC)c1O` [Sinapyl alcohol, sinapyl alcohol], for which the “oxidation of monolignol by ChLAC8 (decrease in substrate by HPLC)” value (shortened to “oxidation … (decrease in substrate by HPLC)”) is given as “could oxidize”, the “dimers in reaction products (LC-MS/MS)” value is on record as “consistent with the masses of dimers”, the “trimers in reaction products (LC-MS/MS)” value is reported as “No trimers were detected” and the Kcat came to 0.013 ± 0.001 s⁻¹. Moreover, the Km is 60.2 ± 16.7 µM and the Vmax is 192.0 ± 12.8 pKat mg^−1.
Regarding `OC/C=C/c1ccc(O)c(O)c1` [Caffeyl alcohol, caffeyl alcohol], the “oxidation … (decrease in substrate by HPLC)” value is given as “could oxidize”, the “dimers in reaction products (LC-MS/MS)” value is listed as “consistent with the masses of dimers”, the “trimers in reaction products (LC-MS/MS)” value is on record as “trimers were observed” and the Kcat is 0.019 ± 0.003* sec^−1. For the same molecule, the Km worked out at 210 ± 90.6 µM and the Vmax was found to be 284.4 ± 50.4 pKat mg^−1. Also, the “Km value for caffeyl alcohol relative to that for sinapyl alcohol” value (recombinant ChLAC8) is listed as ~3.5 fold.
For `COc1cc(/C=C/CO)ccc1O` [Coniferyl alcohol, coniferyl alcohol], the “oxidation … (decrease in substrate by HPLC)” value is “not” and the “dimers in reaction products (LC-MS/MS)” value is “No dimers were detected”.
